# According to the supplement of paper PMC10307832:
# Experiments:
# Assay in all cases: relative viability (nuclei count vs DMSO), 5 days (fraction); higher = more cells survive
# Etoposide + Navitoclax = compound: COc1cc([C@@H]2c3cc4c(cc3[C@@H](O[C@@H]3O[C@@H]5CO[C@@H](C)O[C@H]5[C@H](O)[C@H]3O)[C@H]3COC(=O)[C@H]23)OCO4)cc(OC)c1O [Etoposide] + CC1(C)CCC(c2ccc(Cl)cc2)=C(CN2CCN(c3ccc(C(=O)NS(=O)(=O)c4ccc(N[C@H](CCN5CCOCC5)CSc5ccccc5)c(S(=O)(=O)C(F)(F)F)c4)cc3)CC2)C1 [Navitoclax] (partner 0.5 µM)
# Procedure, shortened: (§1)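 One day after seeding in 1536-well plates, lung cancer cell lines were dosed by pin tool. Dosing was either single-drug or a fixed anchor-drug dose plus five library-drug doses (not always all listed) in √10 steps. After 5 days, nuclei were stained in one fix-and-stain step and counted on 4× images, and relative viability is the nuclei count of treated wells over that of vehicle wells, given as the median of duplicate plates.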
# Bleomycin + OSI-027 = compound: CC1=C(N=C(N=C1N)[C@H](CC(=O)N)NC[C@@H](C(=O)N)N)C(=O)N[C@@H]([C@H](C2=CN=CN2)OC3C(C(C(C(O3)CO)O)O)OC4C(C(C(C(O4)CO)O)OC(=O)N)O)C(=O)N[C@H](C)[C@H]([C@H](C)C(=O)N[C@@H]([C@@H](C)O)C(=O)NCCC5=NC(=CS5)C6=NC(=CS6)C(=O)NCCC[S+](C)C)O [Bleomycin] + COc1cccc2cc(-c3nc([C@H]4CC[C@H](C(=O)O)CC4)n4ncnc(N)c34)[nH]c12 [OSI-027] (partner 0.5 µM); conditions: main component drawn
# Procedure, shortened: as §1
# Etoposide + Linsitinib = compound: COc1cc([C@@H]2c3cc4c(cc3[C@@H](O[C@@H]3O[C@@H]5CO[C@@H](C)O[C@H]5[C@H](O)[C@H]3O)[C@H]3COC(=O)[C@H]23)OCO4)cc(OC)c1O [Etoposide] + C[C@]1(O)C[C@@H](c2nc(-c3ccc4ccc(-c5ccccc5)nc4c3)c3c(N)nccn32)C1 [Linsitinib] (partner 1 µM)
# Procedure, shortened: as §1
# Bleomycin + Vorinostat = compound: CC1=C(N=C(N=C1N)[C@H](CC(=O)N)NC[C@@H](C(=O)N)N)C(=O)N[C@@H]([C@H](C2=CN=CN2)OC3C(C(C(C(O3)CO)O)O)OC4C(C(C(C(O4)CO)O)OC(=O)N)O)C(=O)N[C@H](C)[C@H]([C@H](C)C(=O)N[C@@H]([C@@H](C)O)C(=O)NCCC5=NC(=CS5)C6=NC(=CS6)C(=O)NCCC[S+](C)C)O [Bleomycin] + O=C(CCCCCCC(=O)Nc1ccccc1)NO [Vorinostat] (partner 1 µM); conditions: main component drawn
# Procedure, shortened: as §1
Cell Line,relative viability (Etoposide + Navitoclax; first compound 0.01 µM),relative viability (Etoposide + Navitoclax; first compound 0.03162 µM),relative viability (Etoposide + Navitoclax; first compound 0.1 µM),relative viability (Etoposide + Navitoclax; first compound 0.3162 µM),relative viability (Etoposide + Navitoclax; first compound 1 µM),relative viability (Bleomycin + OSI-027; first compound 0.01 µM),relative viability (Bleomycin + OSI-027; first compound 0.03162 µM),relative viability (Bleomycin + OSI-027; first compound 0.1 µM),relative viability (Bleomycin + OSI-027; first compound 0.3162 µM),relative viability (Bleomycin + OSI-027; first compound 1 µM),relative viability (Etoposide + Linsitinib; first compound 0.01 µM),relative viability (Etoposide + Linsitinib; first compound 0.03162 µM),relative viability (Etoposide + Linsitinib; first compound 0.1 µM),relative viability (Etoposide + Linsitinib; first compound 0.3162 µM),relative viability (Etoposide + Linsitinib; first compound 1 µM),relative viability (Bleomycin + Vorinostat; first compound 0.01 µM),relative viability (Bleomycin + Vorinostat; first compound 0.03162 µM),relative viability (Bleomycin + Vorinostat; first compound 0.1 µM),relative viability (Bleomycin + Vorinostat; first compound 0.3162 µM),relative viability (Bleomycin + Vorinostat; first compound 1 µM)
NCI-H2023,0.99,0.964,0.929,0.423,0.347,0.297,0.328,0.284,0.183,0.111,0.617,0.646,0.651,0.444,0.171,0.409,0.385,0.338,0.0999,0.114
NCI-H2085,1.16,1.06,1.11,0.67,0.354,0.832,0.761,0.574,0.317,0.44,0.8,0.883,0.859,0.51,0.279,0.777,0.721,0.679,0.378,0.386
NCI-H2087,,1.05,0.941,0.727,0.264,,0.515,0.379,0.123,0.126,,1.06,0.889,0.588,0.303,0.441,0.76,0.329,0.0956,0.15
NCI-H2126,0.893,0.917,0.49,0.769,0.448,0.644,0.774,0.738,0.522,0.585,0.738,0.719,0.457,0.598,0.437,0.785,0.692,0.771,0.442,0.5
NCI-H2228,0.842,0.934,0.849,0.473,0.138,0.473,0.467,0.534,0.264,0.164,0.535,0.57,0.728,0.627,0.462,0.637,0.557,0.486,0.17,0.22
NCI-H2347,0.809,0.626,0.405,0.354,0.28,0.338,0.505,0.373,0.199,0.303,1.23,1.08,0.592,0.523,0.408,0.487,0.518,0.414,0.338,0.39
NCI-H2405,0.801,0.912,0.532,0.513,0.187,0.617,0.596,0.567,0.477,0.346,0.791,0.96,0.582,0.7,0.377,0.792,1,0.816,0.59,0.321
NCI-H3122,1.05,1.04,1.05,0.877,0.477,0.917,1.03,0.76,0.262,0.261,1.04,1.05,1.03,0.88,0.449,1.15,0.882,0.823,0.517,0.334
PC-3 [JPC-3],0.784,0.825,0.6,0.787,0.703,0.687,0.789,0.648,0.506,0.41,0.965,0.991,0.952,0.933,0.84,0.788,0.928,0.737,0.46,0.417
PC-14,0.984,1.05,1.19,0.906,0.652,0.439,0.435,0.114,0.0634,0.0557,1.01,1.05,0.956,0.838,0.507,0.414,0.406,0.198,0.0393,0.0658
RERF-LC-KJ,0.829,0.94,0.957,0.829,0.488,0.378,0.364,0.314,0.244,0.239,0.84,0.895,0.866,0.769,0.562,0.489,0.55,0.421,0.344,0.25
SK-LU-1,0.633,0.975,0.468,0.144,0.166,0.338,0.417,0.366,0.272,0.206,1.03,1.03,0.829,0.401,0.281,0.734,0.746,0.521,0.454,0.348
SK-MES-1,1.14,1.23,0.913,0.532,0.211,0.506,0.588,0.57,0.262,0.16,1.05,1.07,0.862,0.612,0.262,0.839,0.936,0.903,0.471,0.235
SW 1573,0.926,0.946,0.639,0.209,0.0658,0.566,0.407,0.382,0.258,0.169,0.884,0.76,0.646,0.327,0.277,0.609,0.447,0.481,0.271,0.187
